123 compounds from a melting point compilation (Tetko et al.) can be followed below.

Molecules are shown by their SMILES.

With `COC(=O)CCCOc1ccc(N)c2ccccc12`, the melting point is 69 to 71 °C. As for `O=c1ccc(-c2ccc3c(c2)OCCCO3)n[nH]1`, the figure is 199 to 201 °C. Compound `COC(=O)C(N)c1ccc(F)cc1F` (stereo not drawn) yielded a melting point of 39 to 41 °C. Compound `Cc1cc(N)ccc1N1C(=O)CCC1=O` had a melting point of 167 to 169 °C. `Cc1cc2occ(CC(=O)O)c2cc1C` had a melting point of 133 to 135 °C.

With `Nc1ccc(N2CCCC2=O)cc1`, the melting point was 125 to 127 °C. Regarding `O=C(O)C(Cc1ccccc1)N1C(=O)C=CC1=O` (stereo not drawn), the melting point is 193 to 195 °C.

In turn, `Cn1cc(C(=O)NN)c2ccccc21` yielded a melting point of 138 to 140 °C.

Regarding `Fc1ccc(C(c2ccc(F)cc2)N2CCNCC2)cc1`, the melting point was in the range of 89 to 92 °C.

`NC(=O)Cc1ccc(N)cc1` showed a melting point of 157 to 159 °C. For `Cc1cc(Br)c(O)c([N+](=O)[O-])c1`, the melting point was in the range of 84 to 86 °C. In turn, `O=C(O)CCCSc1ccccc1` had a melting point of 66 to 68 °C. For `Clc1ccc2[nH]c3c(c2c1)CNCC3`, the melting point was in the range of 226 to 228 °C. As for `CCn1nc(C)c(S(=O)(=O)Cl)c1C`, the figure is 34 to 36 °C.

`ClCc1cc(Br)ccc1Cl` displayed a melting point of 47 to 49 °C. As for `CCOC(=O)c1cc(C2CC2)[nH]n1`, the figure is 98 to 100 °C; as for `O=C(O)c1cnc2c(cnn2Cc2ccccc2)c1`, 210 to 212 °C. Consider `O=C1NC(=O)N(C2CCCCC2)C1=O`, for which the melting point was in the range of 187 to 189 °C.

`CS(=O)(=O)c1ccccc1Br` had a melting point of 107 to 109 °C. As to `O=C(O)C1(O)CCSCC1`, the melting point lay in the range of 118 to 120 °C. Regarding `O=c1c2ccccc2[nH]c2ccc(O)cc12`, the melting point was in the range of 319 to 321 °C.

`Nc1cc(-c2ccccc2)ns1` yielded a melting point of 159 to 161 °C. Turning to `OCCNc1cccnn1`, the melting point fell in the range of 77 to 79 °C. Take `CCOc1c(C#N)cnc2ccccc12`: the melting point fell in the range of 98 to 100 °C. Take `CC1(O)CN(C(=O)OC(C)(C)C)C1`: the melting point was in the range of 89 to 91 °C. As for `CC(C)(C)OC(=O)NC(CC#N)c1ccccc1` (stereo not drawn), the figure is 104 to 106 °C.

`Cn1nc(-c2ccccn2)c(-c2ccc(F)cc2)c1N` had a melting point of 164 to 166 °C.

The compound `Fc1ccc(-c2nc(CCl)cs2)cc1` displayed a melting point of 54 to 56 °C.

Consider `NC(=O)c1c(N)sc2c1CCN(Cc1ccccc1)C2`, for which the melting point lay in the range of 76 to 78 °C. Compound `Nc1ncc(Cc2ccc(Cl)c(Cl)c2)s1` displayed a melting point of 83 to 85 °C. Take `COC(=O)c1c(NC(=O)CCl)sc(C)c1C`: the melting point lay in the range of 143 to 145 °C. Turning to `OCc1cc(I)c(CO)cc1I`, the melting point was 218 to 220 °C. In turn, `O=C1CC=NN1c1ccc(F)cc1` registered a melting point of 121 to 123 °C. As for `O=C(NC(C(=O)O)c1ccccc1)OCc1ccccc1` (stereo not drawn), the figure is 130 to 132 °C. As for `O=C(O)CCNS(=O)(=O)c1ccc(OC(F)(F)F)cc1`, the melting point fell in the range of 150 to 152 °C. In turn, `O=C(O)CSc1nncs1` returned a melting point of 157 to 159 °C. The figure for `O=c1[nH]c2ccc(I)cc2o1` is 209 to 211 °C; for `N#Cc1cc(Cl)ccc1OC1CCOC1` (stereo not drawn) it is 128 to 130 °C; for `CC(C)NS(=O)(=O)c1ccc(Cl)c(C(=O)O)c1` it is 147 to 149 °C. The figure for `Cc1nc(Cl)c(C)c(NN)n1` is 141 to 143 °C; for `CC(C)(C)c1ncsc1C(=O)O` it is 185 to 187 °C; for `NC(=O)C1CCCCN1C(=O)c1cccc(Br)c1` (stereo not drawn) it is 177 to 179 °C. For `Nc1ccccc1-c1nnnn1C1CC1`, the melting point was 97 to 99 °C.

`O=C(O)c1ccc(N2CCCCC2)c(S(=O)(=O)N2CCCCC2)c1` displayed a melting point of 196 to 198 °C.

In the case of `NCc1cccc(OCC(N)=O)c1`, the melting point lay within 89 to 91 °C.

Compound `CN1CCc2ncnc(Cl)c2C1` displayed a melting point of 67 to 69 °C. `OC1CCc2cc(Br)ccc21` (stereo not drawn) showed a melting point of 69 to 71 °C. The compound `O=C(O)CCCNc1ccc([N+](=O)[O-])cc1` came in with a melting point of 158 to 160 °C. Compound `Nc1cc(-c2cccs2)nn1CCO` displayed a melting point of 155 to 157 °C. As to `CC(N)(C(N)=O)c1cccc(Cl)c1` (stereo not drawn), the melting point was in the range of 103 to 105 °C. In the case of `COc1ccc(Br)c2[nH]c(C(=O)O)cc12`, the melting point lay within 246 to 248 °C.

`NC(=O)c1ccc(OCCCl)cc1` gave a melting point of 182 to 184 °C. `CC1(NC(=O)c2ccnc(F)c2)CCCC1` displayed a melting point of 78 to 80 °C. As to `COc1ccc(C(=O)CC(C)=O)cc1`, the melting point is 52 to 54 °C. Regarding `CNC(=O)c1c(C)cccc1N`, the melting point was in the range of 109 to 111 °C. With `NS(=O)(=O)c1cc(C(=O)O)cc2c1CCC2`, the melting point lay in the range of 299 to 301 °C.

`c1cnc2c(c1)NCCO2` registered a melting point of 111 to 113 °C. On to `N#Cc1ccc(CS(N)(=O)=O)cc1`, for which the melting point lay in the range of 154 to 156 °C.

`COc1cc(C(=O)O)cc(CC(C)Cl)c1OC` (stereo not drawn) showed a melting point of 103 to 105 °C. The figure for `CC(=O)NCCOc1ccc(N)cc1` is 92 to 94 °C; for `COC(=O)C(=O)CC(=O)c1ccncc1` it is 93 to 95 °C. The compound `OC(CNCc1ccccc1)c1ccco1` (stereo not drawn) registered a melting point of 68 to 70 °C. `O=C(O)Cc1coc(-c2cccs2)n1` returned a melting point of 185 to 187 °C. As for `C=CC(=O)Nc1cc(OC)c(Cl)cc1OC`, the figure is 124 to 126 °C; as for `O=C(O)c1n[nH]c2ccccc2c1=O`, 259 to 261 °C; as for `COc1ccccc1NS(=O)(=O)c1cc(N)ccc1N1CCCCC1`, 169 to 171 °C. The figure for `CC1(c2ccc(C(F)(F)F)cc2)NC(=O)NC1=O` (stereo not drawn) is 169 to 171 °C; for `CCOC(=O)C(=O)Cc1ccc2ccccc2n1` it is 130 to 132 °C.

With `NC(=NO)c1ccc(Cn2cnc3ccccc32)cc1`, the melting point was 237 to 239 °C. The figure for `COC(=O)COc1c(C)cc(C=O)cc1C` is 50 to 52 °C; for `Cc1ccc(C)c(C(=O)CCC(=O)O)c1` it is 80 to 84 °C. In turn, `Cc1ccc(N)cc1S(=O)(=O)NC(C)(C)C` gave a melting point of 131 to 133 °C. In the case of `Cn1cnc([N+](=O)[O-])c1S(=O)(=O)Cl`, the melting point was in the range of 100 to 102 °C. For the compound `NC(=S)NC1CC1`, the melting point was in the range of 138 to 140 °C. Compound `Cc1ccc(S(=O)(=O)OC2CCCC2c2ccccc2)cc1` (stereo not drawn) displayed a melting point of 65 to 67 °C. As for `Nc1ccccc1CN1C(=O)CCC1=O`, the figure is 108 to 110 °C; as for `O=S(=O)(Cl)c1cccc(-n2cnnn2)c1`, 125 to 127 °C. The compound `Cc1nnc(NC(=O)OCC(F)(F)F)s1` showed a melting point of 231 to 233 °C.

In turn, `CC1CC1C(=O)NCCC(=O)O` (stereo not drawn) had a melting point of 94 to 96 °C.

Regarding `O=C(O)C1CCCN1C(=O)NC1CCCCC1` (stereo not drawn), the melting point was 175 to 177 °C. As for `O=C(O)c1c2c(nc3ccccc13)C(=Cc1ccc(Cl)c(Cl)c1)CC2`, the melting point was in the range of 184 to 186 °C. The figure for `Clc1ncnc2c1CCC2` is 39 to 41 °C; for `Nc1nnc(Cc2cccc(F)c2)s1` it is 193 to 195 °C.

`Cc1nn(C)c(Cl)c1Cn1cc(Br)cn1` came in with a melting point of 52 to 54 °C.

`Cc1ccc(C(N)=O)c(O)c1` came in with a melting point of 181 to 183 °C. For the compound `COc1cc(CCc2cc(N)n[nH]2)cc(OC)c1`, the melting point fell in the range of 107 to 109 °C. As for `N#Cc1ccc2ncccc2c1`, the figure is 135 to 137 °C; as for `Nc1c(-c2cccnc2)nc2ccccn12`, 179 to 181 °C; as for `O=C(O)c1ccc2cc[nH]c2n1`, 209 to 211 °C.

As for `Cc1cccc2c(CCN)c[nH]c12`, the melting point fell in the range of 125 to 127 °C. The figure for `COC(=O)C(N)c1cc(C)c(O)c(C)c1` (stereo not drawn) is 147 to 149 °C; for `Cc1cc2ccccc2n1CC(=O)O` it is 184 to 186 °C. As for `CCOC(=O)COc1ccc(C#N)cc1`, the figure is 54 to 56 °C; as for `O=C(O)CSc1nnc(-c2ccccc2)n1-c1ccc(Cl)cc1`, 224 to 226 °C. `COC(=O)c1cccc(S(=O)(=O)Cl)c1` came in with a melting point of 51 to 53 °C. Consider `Cc1ccc(C2OCCCC2C(=O)O)cc1` (stereo not drawn), for which the melting point lay in the range of 126 to 128 °C. The figure for `O=C(Nc1ccccc1)OCCBr` is 64 to 66 °C. On to `CCOC(=O)c1c(N)n(CCO)c2nc3ccccc3nc12`, for which the melting point is 226 to 228 °C.

For `CCOC(=O)c1c[nH]c2cc(F)c(F)c(F)c2c1=O`, the melting point was in the range of 339 to 341 °C. For `O=C(O)CN1CSCC1=O`, the melting point was in the range of 171 to 173 °C. Consider `CC(C)COc1ccc(C(=O)O)cn1`, for which the melting point was in the range of 105 to 107 °C.

For the compound `COCCn1cc(S(=O)(=O)Cl)cn1`, the melting point was 35 to 37 °C. In turn, `O=Cc1c[nH]nc1-c1cccnc1` returned a melting point of 208 to 210 °C. In the case of `N#Cc1ccnc(-n2cncn2)c1`, the melting point lay in the range of 149 to 151 °C. `NC(=O)c1ccc(C(=O)O)nc1`: the melting point was 249 to 251 °C.

Take `Cc1cc(=O)n2c(n1)NCC2`: the melting point was 159 to 161 °C. As for `Nc1ccc2nncn2c1`, the figure is 169 to 171 °C. With `O=C(O)c1cc(C2CC2)[nH]n1`, the melting point is 193 to 195 °C. As for `Nc1ccc(C(=O)NCc2ccccc2F)cc1`, the figure is 95 to 97 °C; as for `CNC(=O)COc1ccc(N)c(F)c1`, 81 to 83 °C. `Cc1ccc(C(=O)C(O)c2ccc(C)cc2)cc1` (stereo not drawn) yielded a melting point of 88 to 90 °C. The figure for `O=Cc1ccc(-c2ccc(Cl)c(C(F)(F)F)c2)o1` is 74 to 76 °C; for `O=C(O)c1ccccc1NCc1ccco1` it is 156 to 158 °C. For `Nc1nncc(-c2ccccc2)n1`, the melting point lay within 235 to 237 °C. As for `CN(C)Cc1c(O)ccc2c1CCCC2`, the figure is 77 to 79 °C; as for `Nc1nccc(C(F)(F)F)n1`, 174 to 178 °C; as for `COc1ccc(C)cc1C(=O)CBr`, 73 to 75 °C.

`Cc1cc(N)c2c(n1)CCCC2` yielded a melting point of 121 to 123 °C. In turn, `COc1ccc(C=O)cc1OCCCC#N` registered a melting point of 72 to 74 °C. The compound `Cc1ccc(C)c2sc(N)nc12` registered a melting point of 151 to 153 °C. `CCCNC(=O)CN1CCNCC1` had a melting point of 31 to 32 °C. Turning to `CN1CCCc2cc(/C=C/C(=O)O)ccc21`, the melting point was 169 to 171 °C. As for `O=C(O)c1cc(S(=O)(=O)N2CCSCC2)c[nH]1`, the figure is 238 to 240 °C.
